Laboratory results published in article PMC4389225, “Triaminopyrimidine is a fast-killing and long-acting antimalarial clinical candidate” (Nature Communications, 2015).

Legend:
[1] = 3-day rat tolerability study of compound 2; assay type: in vivo
Experimental: Protein binding (human free) […]
μM Cmax (total). Consequently, compound 2 was classified as having no therapeutic window preclinically in this model.
Rat 3 Day Toxicology Study: Male Han Wister rats (n=4) received compound 2 at dose levels of 100 or 300 mg/kg for three days (AstraZeneca, Waltham, USA).
One animal was found dead, and one considered moribund on the morning of Day 4, before

[2] = test system: Dd2-6R F2 D8; test: SYBR green growth assay, Dd2-6R F2 D8; details: Plasmodium falciparum
Experimental: Assays were carried out in 384-well format with three technical replicates within an assay day and biological replicates carried out on three different assay days to assign a final EC50.
The drug was then washed off and the parasites were allowed to recover in normal growth media.

[3] = test system: PfATP4 Cpd 3; test: [3H]-hypoxanthine incorporation assay, PfATP4 Cpd 3 resistant; assay type: cell-based; details: Plasmodium falciparum
Experimental: (§1) Supplementary Table 3: Compound 9 and 12 retain their activity against Pf strains harbouring mutations to novel antimalarial agents in clinical development. Compound 9 and 12 were tested for their antiplasmodial activity against a panel of Pf strains known to harbour mutations conferring resistance to novel agents under clinical development. Parasite growth inhibition is measured using the [3H]-hypoxanthine incorporation assay. IC50s are established for each strain (n ≥2) and compared to the IC50 of Dd2 (standard pan-resistant […]

[4] = 3-day rat toxicity (tolerability) study of compound 12; assay type: in vivo; details: for Summary of clinical signs and effects: NOEL = no observed effect level
Experimental: Two groups of male rats (n=3, Han Wistar) were obtained from Charles River Laboratories, UK. Animals were group housed for ~1 week before the initiation of dosing. On the first day of dosing, rats were ~11 weeks of age and weighed 250–300 g and received compound 12 via oral gavage at dose levels of 75 or 150 mg kg^−1 for three consecutive days and necropsied 24 h after the final dose. Vehicle: 1% pluronic F127; dose volume: 10 ml kg^−1. In addition to regular monitoring of the animals' general condition, toxicokinetic profiles were obtained on day 1 and clinical chemistry, haematology and histopathology were assessed from all animals on day 4. Female animals were not included in the study as sex differences in either exposure or tolerability were not expected and control animals were excluded from this preliminary study design to reduce animal usage. Body weights were collected during acclimation and before each dose. Food and water consumption were available ad libitum but not recorded.
Toxicokinetic profiles were obtained on day 1 from all animals (time points: 0.5, 1, 2, 4, 6 and 24 h post dose) via microsample tail prick (32 μl blood) and were analysed using a qualified analytical procedure. Clinical pathology blood samples were taken at necropsy (24 h after third and final dose) from all animals, and analysed following a routine toxicological parameter list. Urinalysis was not performed.

[5] = in vitro; assay type: in vitro ADME; details: pH 7.4, Michaelis-Menten
Experimental: Supplementary Note 3: Metabolism of 12 in the presence of mouse (MLM) and human […]
The kinetics of metabolism of compound 12 to form the N-demethylated metabolite, 9, was studied by incubating 12 with HLM or MLM. Compound 12 was incubated with 1 mg/mL of pooled liver microsomes at four different compound concentrations (5, 10, 20 and 30 μM) in 166 µL of buffer containing 100 mM phosphate buffer, pH 7.4 and 1 mM NADPH, at 37°C.
Aliquots of 20 µL of incubation mix were quenched with 4 volumes of ice-cold acetonitrile at different time points, i.e., 0, 5, 10, 20 and 30 min in a 96 well microtitre plate. The quenched plate was centrifuged at 4000 rpm for 15 min and 20 µL of the supernatant was diluted to 200 µL with 50% acetonitrile in water. Depletion of 12 and formation of 9 was analysed by LC-MS/MS. Concentrations of 12 and 9 were determined using calibration curves prepared with synthetic standards. Kinetics of metabolite formation or parent depletion is shown in supplementary Fig. 5, Fig. 6 and kinetic parameters are described in supplementary Table […]
The rate and extent of metabolite formation in the presence of mouse liver microsomes was […]
than in the presence of HLM.

[6] = test system: Pf 3D7A; test: in vitro parasite reduction ratio (PRR) assay; details: after 48 h of exposure, 10 times IC50
[7] = test system: Dd2 PfATP4 NITD609; test: [3H]-hypoxanthine incorporation assay, Dd2 PfATP4 NITD609 resistant; assay type: cell-based; details: Plasmodium falciparum
Experimental: as §1

[8] = test system: Pf3D7^0087/N9; test: animal or person; assay type: in vivo, Plasmodium falciparum
Description: All animal studies were ethically reviewed and carried out in accordance with European Directive 86/609/EEC and the GSK Policy on the Care, Welfare and Treatment of Animals. During this experiment, female mice were used from the batch NSGJ 01/1 (The Jackson Laboratory, USA). The therapeutic efficacy of compound 12 against Pf3D7^0087/N9 was studied using a ‘4-day test’ reported earlier. Briefly, NODscidIL2Rγ^null mice engrafted with human erythrocytes were infected with 20 × 10^6 Pf-infected erythrocytes. Infections were performed by i.v. inoculation. All mice were randomly assigned to their corresponding treatment. The treatment started at day 3 and finished at day 6 after infection. The compound was administered orally as a suspension in 0.5% w/v hydroxypropyl methylcellulose (HPMC) with 0.1% v/v Tween 80, using an oral gavage at a maximum dose volume of 20 ml kg^−1. Vehicle alone was administered in untreated mice. In all cases, parasitemia was assessed in samples from peripheral blood obtained at days 3–7 after infection. A qualitative analysis of the effect of treatment on Pf3D7^0087/N9 was assessed by microscopy and flow cytometry. Fresh samples of peripheral blood from Pf-infected mice were stained with TER-119-Phycoerythrine (marker of murine erythrocytes) and SYTO-16 (nucleic acid dye) and then analysed by flow cytometry (FACS Calibur, BD). Microscopy analysis was performed with Giemsa-stained blood smears from samples taken at days 5 and 7 (48 and 96 h after starting treatment, respectively).
PK-PD model for the metabolite (compound 9) alone. Pharmacokinetic data from the Pf/SCID model was linked to efficacy using the following equation5.
Where P [log (total no. of parasites / mouse)], Kgro (growth rate constant), Pmax (log (maximum no. of parasites / mouse)), Kkill (maximum kill rate constant), H (Hill slope), EC50 (concentration required for achieving half maximal kill rate) and Ce (concentration of the drug in the effect compartment). Percent parasitemia values were converted into total number of parasites in mouse blood assuming […] (9.23 log10) RBCs per mouse. The lower limit of quantitation for % parasitemia was 0.01% or 5.23 log10. Effect compartment was used for modelling the delay observed in efficacy at a lower dose. […]

## Cc1cc(Nc2ncc(N3CCN(C)CC3)c(N3CCCC3)n2)ccn1 [compound 2]
[1]; 100 mg/kg oral
  A - Plasma Cmax Total: 8.13 µM
  Safety Margin (A / B): None
  Summary of clinical signs and effects: Non-specific toxicity
[1]; 300 mg/kg oral
  A - Plasma Cmax Total: 19.18 µM
  Safety Margin (A / B): None
  Summary of clinical signs and effects: Premature decedents

## Cc1nc(Nc2ncc(N3CCN(C)[C@H](C)C3)c(Nc3cc(C)n(C)n3)n2)cc(C2CC2)c1F [compound 12, (R)-N2-(4-cyclopropyl-5-fluoro-6-methylpyridin-2-yl)-N4-(1,5-dimethyl-1H-pyrazol-3-yl)-5-(3,4-dimethylpiperazin-1-yl)pyrimidine-2,4-diamine]
[2]
  IC50: 0.0696 µM
[3]
  IC50: 0.01 µM
[4]; 75 mg kg^−1 per day oral
  A—plasma Cmax free: 0.11 µM
  Safety margin (A/B)-free Cmax: 12.6
  Summary of clinical signs and effects: NOEL
[4]; 150 mg kg^−1 per day oral
  A—plasma Cmax free: 0.13 µM
  Safety margin (A/B)-free Cmax: 15
  Summary of clinical signs and effects: NOEL
[4]; 75 or 150 mg kg^−1 oral, three days
  clinical pathology and histopathology findings: no findings considered related to treatment
[5]; human, HLM
  Km: 22.5 µM
[5]; mouse, MLM
  Km: 78.3 µM
[6]
  log kill in PRR assay: > 4 log
[7]
  IC50: 0.0068 µM
[8]; 4 days of daily treatment, 20 mg kg^−1, oral
  clearance of Pf parasites: below detection limit
[8]; Plasmodium falciparum, in Mus musculus
  EC50: 0.038 µM
[8]; mouse model of Pf malaria
  ED99: < 30 mg/kg
[8]; oral, 4-day test
  dose at which maximum kill rate was observed: 40 mg/kg
[8]; parent, model predicted estimate
  Kkill: 0.097 h⁻¹
